Reference: the supplement of paper PMC10331698
± gives the standard deviation of the averaged measurements.

Legend:
Test in all cases: level (log10 ratio to DMSO vehicle control); higher = higher biomarker level / cell amount than vehicle control
Conditions in all cases: in DMSO
Hexafluoroamylene glycol = compound: OCC(F)(F)C(F)(F)C(F)(F)CO [Hexafluoroamylene glycol]
Description: (§1)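 BioMAP Diversity Plus panel of 12 human primary cell co-culture systems (3C, 4H, LPS, SAg, BT, BF4T, BE3C, CASM3C, HDF3CGF, KF3CT, MyoF, Mphg). Compounds were added 1 h before stimulation and left for 24 h (MyoF 48 h; BT 72 h for soluble read-outs or 6 d for IgG). Biomarkers were read by ELISA, cytotoxicity by SRB, PBMC viability and proliferation by Alamar Blue. Each well value was divided by the mean of 8 DMSO control wells on the same plate and log10 transformed; duplicate blinded samples were tested at 4 concentrations.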

[1] = compound: O=S(=O)(Cl)C(F)(F)C(F)(F)C(F)(F)C(F)(F)C(F)(F)C(F)(F)C(F)(F)C(F)(F)F [Perfluoro-1-octanesulfonyl chloride]
Description: as §1

[2] = compound: O=S(=O)(F)C(F)(F)C(F)(F)C(F)(F)C(F)(F)C(F)(F)C(F)(F)C(F)(F)C(F)(F)F [Perfluorooctanesulfonyl fluoride]
Description: as §1

[3] = compound: O=S(=O)(O)C(F)(F)C(F)(F)C(F)(F)C(F)(F)C(F)(F)C(F)(F)C(F)(F)C(F)(F)C(F)(F)C(F)(F)F [Sodium perfluorodecanesulfonate]
Description: as §1

[4] = compound: FC(F)(F)C(F)(F)CNCC(F)(F)C(F)(F)F [Bis(1H,1H-perfluoropropyl)amine]
Description: as §1

[5] = compound: O=C(O)C=CC(F)(C(F)(F)F)C(F)(F)F [3-(Perfluoroisopropyl)-2-propenoic acid]
Description: as §1

| Test System | level (log10) (Hexafluoroamylene glycol; 6700 nM) | level (log10) (Hexafluoroamylene glycol; 20000 nM) | level (log10) (Hexafluoroamylene glycol; 60000 nM) | level (log10) ([1]; 6700 nM) | level (log10) ([1]; 20000 nM) | level (log10) ([1]; 60000 nM) | level (log10) ([2]; 6700 nM) | level (log10) ([2]; 20000 nM) | level (log10) ([2]; 60000 nM) | level (log10) ([3]; 1500 nM) | level (log10) ([3]; 4400 nM) | level (log10) ([3]; 13000 nM) | level (log10) ([3]; 40000 nM) | level (log10) ([4]; 6700 nM) | level (log10) ([4]; 20000 nM) | level (log10) ([4]; 60000 nM) | level (log10) ([5]; 6700 nM) | level (log10) ([5]; 20000 nM) | level (log10) ([5]; 60000 nM) |
| --- | --- | --- | --- | --- | --- | --- | --- | --- | --- | --- | --- | --- | --- | --- | --- | --- | --- | --- | --- |
| BE3C:Keratin 8/18 | 0.002 ± 0.018 | -0.0155 ± 0.013 | 0.002 ± 0.02 | -0.0025 ± 0.0021 | 0.003 ± 0.0028 | -0.106 ± 0.05 | -0.012 ± 0.0014 | -0.01 ± 0.016 | -0.0105 ± 0.005 | 0.0095 ± 0.015 | 0.0065 ± 0.023 | -0.0345 ± 0.012 | -0.302 ± 0.0071 | -0.008 ± 0.0028 | -0.007 ± 0.0014 | 0.006 ± 0.024 | 0.0015 ± 0.019 | -0.0065 ± 0.012 | 0.002 ± 0.0028 |
| BE3C:MMP-1 | -0.009 ± 0.017 | -0.03 ± 0.0057 | 0.015 ± 0.025 | 0.075 ± 0.03 | 0.27 ± 0.012 | -0.178 ± 0.047 | -0.0045 ± 0.00071 | -0.001 ± 0.014 | -0.0005 ± 0.013 | -0.0225 ± 0.053 | 0.0585 ± 0.059 | 0.239 ± 0.011 | 0.153 ± 0.0071 | -0.0145 ± 0.026 | -0.014 ± 0.011 | 0.0185 ± 0.049 | 0.0495 ± 0.06 | 0.034 ± 0.061 | 0.085 ± 0.0028 |
| BE3C:MMP-9 | -0.014 ± 0.0099 | -0.01 ± 0.0057 | 0.008 ± 0.033 | -0.018 ± 0.0042 | 0.0275 ± 0.0078 | -0.35 ± 0.037 | -0.025 ± 0.024 | -0.02 ± 0.0042 | -0.026 ± 0.0071 | -0.0125 ± 0.04 | 0.0105 ± 0.005 | -0.0785 ± 0.013 | -0.302 ± 0.041 | -0.026 ± 0.0042 | -0.0175 ± 0.011 | 0.009 ± 0.042 | -0.018 ± 0.0042 | -0.008 ± 0.0028 | 0.007 ± 0.04 |
| BE3C:PAI-I | -0.0205 ± 0.0021 | -0.017 ± 0.0042 | 0.0115 ± 0.0021 | 0.0265 ± 0.011 | 0.0055 ± 0.019 | -0.416 ± 0.054 | -0.021 ± 0.0099 | -0.022 ± 0.052 | -0.0135 ± 0.056 | -0.0925 ± 0.036 | -0.106 ± 0.022 | -0.26 ± 0.058 | -0.406 ± 0.013 | -0.0395 ± 0.00071 | -0.022 ± 0.0057 | -0.0075 ± 0.023 | 0.0105 ± 0.00071 | -0.003 ± 0.0042 | 0.0065 ± 0.023 |
| BE3C:SRB | -0.002 ± 0.0014 | -0.006 ± 0.0028 | 0.0075 ± 0.0021 | -0.001 ± 0.0014 | -0.049 ± 0.0057 | -0.659 ± 0.019 | -0.003 ± 0.0014 | 0.0005 ± 0.005 | 0.0045 ± 0.021 | 0.0005 ± 0.0021 | 0 ± 0.0014 | -0.0555 ± 0.028 | -0.368 ± 0.069 | -0.002 ± 0.0057 | -0.004 | 0.003 ± 0.0071 | -0.0005 ± 0.005 | -0.002 ± 0.0014 | 0.013 ± 0.021 |
| BE3C:uPA | -0.0055 ± 0.0078 | -0.013 ± 0.0014 | -0.004 | -0.006 ± 0.0028 | 0.0085 ± 0.0064 | -0.133 ± 0.059 | 0.0045 ± 0.0021 | -0.011 ± 0.0057 | 0.004 ± 0.014 | -0.027 ± 0.0057 | -0.032 ± 0.034 | -0.019 ± 0.017 | -0.051 ± 0.027 | -0.0155 ± 0.0064 | -0.0185 ± 0.0092 | -0.003 ± 0.013 | -0.0045 ± 0.005 | -0.001 ± 0.0057 | 0.0045 ± 0.0021 |
